# Test results: US20240226228A1, “ANTIMICROBIAL PEPTOID HAVING IMPROVED SELECTIVITY AND ANTIMICROBIAL COMPOSITION COMPRISING SAME” (priority 2021, published 2024)
# Where two headings read alike, the source gives them in different places. Where a SMILES comes first, the peptide text is derived from it. [ ]: non-standard residue; d: D form. Gly(N(CH2)2(3-indolyl)) = O=C(O)CNCCc1c[nH]c2ccccc12; Gly(N-CH2CH2-imidazol-4-yl) = O=C(O)CNCCc1c[nH]cn1; Nspe = C[C@H](NCC(=O)O)c1ccccc1; Nphe = O=C(O)CNCc1ccccc1; Nlys = NCCCCNCC(=O)O
# Columns and labels:
# S. aureus ATCC 25923 = test system: S. aureus ATCC 25923
# Method in brief: (§1)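 Cation-adjusted MHB2 cultures (18 h, subcultured 4 h) adjusted to 2×10^5–5×10^5 CFU/mL in medium with 0.02% BSA and 0.001% acetic acid.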
# E. coli ATCC25922 = test system: E. coli ATCC25922
# Method in brief: as §1
# red blood cells = assay: Hemolysis assay; format: cell-based, Sprague-Dawley mouse
# Method in brief: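 Peptoid is mixed with 10% (v/v) PBS-washed erythrocytes (male Sprague-Dawley […], 13 weeks) and held 1 h at 37 °C. Hemolysis is calculated from 540 nm absorbance of the supernatant, with PBS as 0% and Triton X-100 as 100%.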
# [1] = Tables 11-13, 24 hours at 37° C., maximum concentration 25 μM
# [2] = Table 18, TFA salt vs counter ion-substituted (HCl, AcOH) peptoids
SMILES,MIC S. aureus ATCC 25923 (S. aureus ATCC 25923; [1]) [µM],MIC E. coli ATCC25922 (E. coli ATCC25922; [1]) [µM],HC10 (red blood cells),HC50 (red blood cells),Hmax (100 μM) (red blood cells),MIC S. aureus ATCC 25923 (S. aureus ATCC 25923; ATCC 25923) [µM],MIC E. coli ATCC25922 (E. coli ATCC25922; ATCC25922) [µM],HD10 (red blood cells),HD50 (red blood cells),MIC S. aureus ATCC 25923 (S. aureus ATCC 25923; [2]) [µM],MIC E. coli ATCC25922 (E. coli ATCC25922; [2]) [µM]
C[C@@H](c1ccccc1)N(CC(N)=O)C(=O)CN(C(=O)CN(CCCCN)C(=O)CN(C(=O)CN(C(=O)CN(CCCCN)C(=O)CN(CCc1c[nH]c2ccccc12)C(=O)CN(C(=O)CN(CCCCN)C(=O)CN(C(=O)CN(C(=O)CNCCCCN)[C@@H](C)c1ccccc1)[C@@H](C)c1ccccc1)[C@@H](C)c1ccccc1)[C@@H](C)c1ccccc1)[C@@H](C)c1ccccc1)[C@@H](C)c1ccccc1 [Peptoid 9],1.6,3.1,10.6 µM,31.9 µM,106.4 ± 0.6%,,,,,,
C[C@@H](c1ccccc1)N(CC(=O)N(CCCCN)CC(=O)N(CCc1c[nH]c2ccccc12)CC(=O)N(CCc1c[nH]c2ccccc12)CC(N)=O)C(=O)CN(CCCCN)C(=O)CN(CCCCN)C(=O)CN(C(=O)CN(C(=O)CN(CCc1c[nH]cn1)C(=O)CN(C(=O)CN(C(=O)CNCCCCN)[C@@H](C)c1ccccc1)[C@@H](C)c1ccccc1)[C@@H](C)c1ccccc1)[C@@H](C)c1ccccc1 [Peptoid 80] (H-[Nlys][Nspe][Nspe][Gly(N-CH2CH2-imidazol-4-yl)][Nspe][Nspe][Nlys][Nlys][Nspe][Nlys][Gly(N(CH2)2(3-indolyl))][Gly(N(CH2)2(3-indolyl))]-NH2),,,,,4.0 ± 0.5,6.3,12.5,>100.0/>100.0,>100.0/>100.0,,
C[C@@H](c1ccccc1)N(CC(N)=O)C(=O)CN(C(=O)CN(CCCCN)C(=O)CN(C(=O)CN(C(=O)CN(CCCCN)C(=O)CN(C(=O)CN(C(=O)CN(CCCCN)C(=O)CN(CCc1c[nH]c2ccccc12)C(=O)CN(CCc1c[nH]c2ccccc12)C(=O)CNCCCCN)[C@@H](C)c1ccccc1)[C@@H](C)c1ccccc1)[C@@H](C)c1ccccc1)[C@@H](C)c1ccccc1)[C@@H](C)c1ccccc1 [Peptoid 14-2],,,14.9 µM,51.8 µM,100.7 ± 17.2%,,,,,1.6,3.1
C[C@@H](c1ccccc1)N(CC(N)=O)C(=O)CN(C(=O)CN(CCCCN)C(=O)CN(C(=O)CN(C(=O)CN(CCCCN)C(=O)CN(C(=O)CN(C(=O)CN(CCCCN)C(=O)CN(CCc1c[nH]c2ccccc12)C(=O)CN(C(=O)CNCCCCN)[C@@H](C)c1ccccc1)[C@@H](C)c1ccccc1)[C@@H](C)c1ccccc1)[C@@H](C)c1ccccc1)[C@@H](C)c1ccccc1)[C@@H](C)c1ccccc1 [Peptoid 10-2],,,14.1 µM,29.4 µM,102.3 ± 11.3%,,,,,1.6,6.3
C[C@@H](c1ccccc1)N(CC(=O)N(CCCCN)CC(=O)N(CC(=O)N(CC(N)=O)Cc1ccccc1)Cc1ccccc1)C(=O)CN(CCCCN)C(=O)CN(CCCCN)C(=O)CN(C(=O)CN(C(=O)CN(CCCCN)C(=O)CN(C(=O)CN(C(=O)CNCCCCN)[C@@H](C)c1ccccc1)[C@@H](C)c1ccccc1)[C@@H](C)c1ccccc1)[C@@H](C)c1ccccc1 [Peptoid 45] (H-[Nlys][Nspe][Nspe][Nlys][Nspe][Nspe][Nlys][Nlys][Nspe][Nlys][Nphe][Nphe]-NH2),25,>25,>100/>100 μM,>100/>100 μM,4.5 ± 0.2%,,,,,,
C[C@@H](c1ccccc1)N(CC(=O)N(CCCCN)CC(=O)N(CCc1c[nH]c2ccccc12)CC(=O)N(CCc1c[nH]c2ccccc12)CC(N)=O)C(=O)CN(CCCCN)C(=O)CN(CCCCN)C(=O)CN(Cc1ccccc1)C(=O)CN(Cc1ccccc1)C(=O)CN(CCCCN)C(=O)CN(C(=O)CN(C(=O)CNCCCCN)[C@@H](C)c1ccccc1)[C@@H](C)c1ccccc1 [Peptoid 40] (H-[Nlys][Nspe][Nspe][Nlys][Nphe][Nphe][Nlys][Nlys][Nspe][Nlys][Gly(N(CH2)2(3-indolyl))][Gly(N(CH2)2(3-indolyl))]-NH2),12.5,12.5,>100/>100 μM,>100/>100 μM,8.9 ± 0.2%,,,,,,
C[C@@H](c1ccccc1)N(CC(N)=O)C(=O)CN(C(=O)CN(CCCCN)C(=O)CN(C(=O)CN(C(=O)CN(CCCCN)C(=O)CN(C(=O)CN(C(=O)CN(CCCCN)C(=O)CN(Cc1ccccc1)C(=O)CN(Cc1ccccc1)C(=O)CNCCCCN)[C@@H](C)c1ccccc1)[C@@H](C)c1ccccc1)[C@@H](C)c1ccccc1)[C@@H](C)c1ccccc1)[C@@H](C)c1ccccc1 [Peptoid 46],0.8,6.3,6.9 µM,36.5 µM,90.8 ± 2.7%,,,,,,
C[C@H](NCC(=O)N(CCCCN)CC(=O)N(CC(=O)N(CC(=O)N(CCCCN)CC(=O)N(CC(=O)N(CC(=O)N(CCCCN)CC(=O)N(CC(=O)N(CC(=O)N(CCCCN)CC(=O)N(CC(N)=O)[C@@H](C)c1ccccc1)[C@@H](C)c1ccccc1)[C@@H](C)c1ccccc1)[C@@H](C)c1ccccc1)[C@@H](C)c1ccccc1)[C@@H](C)c1ccccc1)[C@@H](C)c1ccccc1)c1ccccc1 [Peptoid 48] (H-[Nspe][Nlys][Nspe][Nspe][Nlys][Nspe][Nspe][Nlys][Nspe][Nspe][Nlys][Nspe]-NH2),3.1,12.5,25.7 µM,48.4 µM,79.9 ± 3.6%,,,,,,
C[C@@H](c1ccccc1)N(CC(=O)N(CCCCN)CC(=O)N(CC(=O)N(CC(=O)N(CCCCN)CC(=O)N(CCc1c[nH]c2ccccc12)CC(=O)N(CCc1c[nH]c2ccccc12)CC(N)=O)[C@@H](C)c1ccccc1)[C@@H](C)c1ccccc1)C(=O)CN(CCCCN)C(=O)CN(CCCCN)C(=O)CN(C(=O)CN(C(=O)CNCCCCN)[C@@H](C)c1ccccc1)[C@@H](C)c1ccccc1 [Peptoid 30] (H-[Nlys][Nspe][Nspe][Nlys][Nlys][Nspe][Nlys][Nspe][Nspe][Nlys][Gly(N(CH2)2(3-indolyl))][Gly(N(CH2)2(3-indolyl))]-NH2),3.1,12.5,>100/>100 μM,>100/>100 μM,8.4 ± 0.5%,,,,,,
C[C@@H](c1ccccc1)N(CC(=O)N(CCCCN)CC(=O)N(CCCCN)CC(=O)N(CC(=O)N(CC(=O)N(CCCCN)CC(=O)N(CC(=O)N(CC(=O)N(CCCCN)CC(N)=O)[C@@H](C)c1ccccc1)[C@@H](C)c1ccccc1)[C@@H](C)c1ccccc1)[C@@H](C)c1ccccc1)C(=O)CN(CCCCN)C(=O)CN(CCc1c[nH]c2ccccc12)C(=O)CNCCc1c[nH]c2ccccc12 [Peptoid 38] (H-[Gly(N(CH2)2(3-indolyl))][Gly(N(CH2)2(3-indolyl))][Nlys][Nspe][Nlys][Nlys][Nspe][Nspe][Nlys][Nspe][Nspe][Nlys]-NH2),6.3,12.5,>100/>100 μM,>100/>100 μM,5.9 ± 0.5%,,,,,,
C[C@@H](c1ccccc1)N(CC(=O)N(CCCCN)CC(=O)N(CCc1c[nH]c2ccccc12)CC(=O)N(CCc1c[nH]c2ccccc12)CC(N)=O)C(=O)CN(CCCCN)C(=O)CN(CCCCN)C(=O)CN(C(=O)CN(C(=O)CN(CCCCN)C(=O)CN(Cc1ccccc1)C(=O)CN(Cc1ccccc1)C(=O)CNCCCCN)[C@@H](C)c1ccccc1)[C@@H](C)c1ccccc1 [Peptoid 41] (H-[Nlys][Nphe][Nphe][Nlys][Nspe][Nspe][Nlys][Nlys][Nspe][Nlys][Gly(N(CH2)2(3-indolyl))][Gly(N(CH2)2(3-indolyl))]-NH2),6.3,25,>100/>100 μM,>100/>100 μM,7.1 ± 0.1%,,,,,,
C[C@@H](c1ccccc1)N(CC(=O)N(CCCCN)CC(=O)N(CC(=O)N(CC(=O)N(CCCCN)CC(=O)N(CC(=O)N(CC(=O)N(CCCCN)CC(N)=O)[C@@H](C)c1ccccc1)[C@@H](C)c1ccccc1)[C@@H](C)c1ccccc1)[C@@H](C)c1ccccc1)C(=O)CN(C(=O)CN(CCCCN)C(=O)CN(CCc1c[nH]c2ccccc12)C(=O)CNCCc1c[nH]c2ccccc12)[C@@H](C)c1ccccc1 [Peptoid 37-1] (H-[Gly(N(CH2)2(3-indolyl))][Gly(N(CH2)2(3-indolyl))][Nlys][Nspe][Nspe][Nlys][Nspe][Nspe][Nlys][Nspe][Nspe][Nlys]-NH2),,,14.4 µM,56.5 µM,86.6 ± 5.7%,,,,,3.1,6.3
